According to patent publication US8466162B2, “5-alkynyl-pyridines” (Boehringer Ingelheim International GmbH, priority 2011, dated 2013):

Tests used:
[1] = target: T1, PI3Kalpha (Homo sapiens, UniProt P42336); assay: Inhibition of PI3Kalpha-induced PIP-2 phosphorylation (filter-binding assay, 33P-ATP); format: biochemical; details: PI3 Kinase alpha (p85alpha/His-p110alpha), 1 μM ATP; read-out: IC50 PI3Kα
T1 construct: His (N); made in house; host or cells: SF9 insect cells (baculovirus co-infection)
T1 sequence (P27986 whole entry): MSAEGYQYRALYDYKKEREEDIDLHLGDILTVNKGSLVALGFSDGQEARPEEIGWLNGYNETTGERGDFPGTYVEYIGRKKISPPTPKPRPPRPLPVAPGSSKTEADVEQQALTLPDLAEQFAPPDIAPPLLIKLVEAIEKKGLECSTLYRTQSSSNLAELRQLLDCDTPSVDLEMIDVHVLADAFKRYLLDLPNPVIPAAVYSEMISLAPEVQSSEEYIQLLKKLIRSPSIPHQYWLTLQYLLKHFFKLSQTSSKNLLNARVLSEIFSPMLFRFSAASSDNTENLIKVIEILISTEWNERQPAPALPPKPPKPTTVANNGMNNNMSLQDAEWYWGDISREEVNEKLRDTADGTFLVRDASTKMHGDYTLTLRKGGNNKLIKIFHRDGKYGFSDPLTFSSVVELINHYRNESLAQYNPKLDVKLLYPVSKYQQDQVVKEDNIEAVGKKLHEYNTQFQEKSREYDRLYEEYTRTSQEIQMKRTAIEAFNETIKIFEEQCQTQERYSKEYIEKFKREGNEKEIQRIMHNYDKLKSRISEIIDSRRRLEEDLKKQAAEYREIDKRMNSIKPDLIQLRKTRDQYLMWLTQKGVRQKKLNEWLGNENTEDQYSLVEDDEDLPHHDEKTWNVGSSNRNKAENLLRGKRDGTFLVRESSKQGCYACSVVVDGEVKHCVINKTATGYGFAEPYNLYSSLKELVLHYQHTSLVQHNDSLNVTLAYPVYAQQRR
T1 sequence (P42336 whole entry): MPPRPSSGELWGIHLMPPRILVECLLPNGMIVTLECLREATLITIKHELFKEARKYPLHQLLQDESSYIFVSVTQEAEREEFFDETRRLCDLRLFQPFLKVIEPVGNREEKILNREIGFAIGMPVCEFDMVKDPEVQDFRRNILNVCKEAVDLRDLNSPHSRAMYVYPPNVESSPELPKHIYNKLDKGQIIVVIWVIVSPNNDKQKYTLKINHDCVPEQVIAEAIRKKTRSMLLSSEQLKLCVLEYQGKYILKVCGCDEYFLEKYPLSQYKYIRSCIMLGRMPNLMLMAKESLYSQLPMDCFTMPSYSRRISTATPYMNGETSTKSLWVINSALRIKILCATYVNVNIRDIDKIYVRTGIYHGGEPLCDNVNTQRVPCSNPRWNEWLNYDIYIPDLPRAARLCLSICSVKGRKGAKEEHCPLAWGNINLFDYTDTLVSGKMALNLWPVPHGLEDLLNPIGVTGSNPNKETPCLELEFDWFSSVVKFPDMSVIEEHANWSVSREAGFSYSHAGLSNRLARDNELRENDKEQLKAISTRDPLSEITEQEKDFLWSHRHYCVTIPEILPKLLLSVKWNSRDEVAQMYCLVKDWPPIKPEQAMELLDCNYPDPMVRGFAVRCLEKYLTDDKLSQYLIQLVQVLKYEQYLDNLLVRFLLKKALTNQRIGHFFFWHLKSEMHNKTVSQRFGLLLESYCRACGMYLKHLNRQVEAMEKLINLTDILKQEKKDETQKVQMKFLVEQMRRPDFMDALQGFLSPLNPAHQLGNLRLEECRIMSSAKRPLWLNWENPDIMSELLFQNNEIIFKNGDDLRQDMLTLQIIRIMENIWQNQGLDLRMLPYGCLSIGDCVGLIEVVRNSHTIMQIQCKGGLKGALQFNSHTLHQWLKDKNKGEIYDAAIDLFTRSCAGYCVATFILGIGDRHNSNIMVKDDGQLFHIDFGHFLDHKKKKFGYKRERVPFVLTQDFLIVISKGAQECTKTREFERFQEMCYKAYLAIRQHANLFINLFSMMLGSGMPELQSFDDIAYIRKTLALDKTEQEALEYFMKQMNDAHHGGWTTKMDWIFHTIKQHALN
Description: Biological Methods Inhibition of PI3Kalpha-Induced PIP-2 Phosphorylation
See also J. A. Engelman, Nature Reviews Cancer, 2009, 9, 550-562; A. Carnero, Expert Opin. Investig. Drugs, 2009, 18, 1265-1277 and P. Liu et al., Nature Reviews Drug Discovery, 2009, 8, 627-64.
Method Type: Filter-Binding-Assay
Aliquoted in desired amounts and stored at −80° C. […] Assay Procedure
The substrate-containing lipid vesicles are dissolved to a concentration of 0.637 mg lipid blend/ml assay buffer (with BSA, freshly added) in 50 ml Falcon ->keep on ice, followed by ultrasonication (pulse of 15 sec followed by a pause of 10 sec, 4×). Compounds are serially diluted in assay buffer+6% DMSO and 10 μl of each dilution is added per well of a 96-well plate (compounds are tested in duplicates) and mixed with 30 μl of the lipid vesicles containing PDGFR-Peptide (0.5 μM final) and PI3K alpha (25 ng/well final). The mixture is then incubated for 20 minutes at room temperature.
Subsequently, 20 μl of assay buffer containing 3 μM cold ATP and 0.5 μCi/20 μl 33P-ATP are added. The plates are then incubated at room temperature for 120 minutes (shaking with 300 rpm).
The reaction mix is transferred onto filter plates using “filtermate harvester” from Packard: filter plates are rinsed with PBS, then the reaction mix is filtered onto the filter plate, washed 5 times with PBS and are allowed to dry for 30-60 minutes at 50° C. The plate bottom is sealed with Perkin Elmer white adhesive foil and 25 μl/well Microscint0 are added, the top is covered with transparent adhesive foil and the plate is measured with Wallac Trilux 1450 Microbeta Counter.
As positive control serve wells containing vehicle controls (1% DMSO in assay buffer), showing non-inhibited kinase activity (high values). Wells containing assay buffer instead of enzyme can serve as control for background activity (low values).
Calculate IC50 values using the Smiley program (based on GrapPad Prism)

[2] = system: H460 cells; assay: alamarBlue H460 cell assay (antiproliferative/cytotoxicity); format: cell-based; details: NCI-H460; H460 human lung carcinoma cells
Text: (§1) The H460, MB453, U87, MCF7 and BT474 alamarBlue cell assays provide EC50 values indicative of the antiproliferative or cytotoxic effects of the compounds to respectively the H460 (human non small cell line cancer), MB-453 (breast cancer cell line), U87 (glioblastoma cell line), MCF7 (breast cancer cell line) and BT474 (breast cancer cell line). As known in the field, antiproliferative or cytotoxic effect against this cell lines would be expected to be indicative of activity in treating lung, breast and brain cancers. See R. Marone R et al. Biochim. Biophys. Acta. 2008 January; 1784(1):159-85. S. Yaguchi et al., J. Natl. Cancer Inst. 2006 Apr. 19; 98(8):545-56.
(§2) Method Type: Antiproliferative/Cytotoxicity
(§3) alamarBlue® is designed to provide a rapid and sensitive measure of cell proliferation and cytotoxicity in various human and animal cell lines. The assay is based on the reduction of alamarBlue in the reducing environment of living (metabolically active) cells. In the presence of added cytotoxic or antiproliferative compounds, the innate metabolic activity ceases.
(§4) AlamarBlue is soluble and stable in culture medium. Measurements are made fluorometrically by exciting at 530-560 nm and measuring emission at 590 nm. In reporting percent alamarBlue reduction by monitoring fluorescence, data are expressed as fluorescence emission intensity units as a function of time of incubation.
(§5) 3. Equipment • 96-well plates, flat bottom (Falcon, Cat. No.: 353072) • 96-well plates, U-shaped (Costar, Cat. No.: 3799) • CO2-Incubator • Microplate Reader, Spectramax Plus, Molecular Devices 4. Typical Procedure • Day 0: Seed 3000 BT-474 cells (IMDM/5% FCS, 1% NEAA, 1% Sodiumpyruvat) in 150 μl medium into a 96-well plate, flat bottom (include mediumblank). Incubate plates at 37° C. in a CO2 incubator overnight. • Day 1: Dilute compounds to a concentration 40 μM ->1:3 in medium, 10 dilution steps, in 96-well plates. • Add 50 μl per well of each dilution (total volume per well 200 μl; final conc. of cpds: 10 μM ->1:3). If required, test further dilutions. • All concentrations are tested in duplicates. • Controls: Cells w/o cpd. (+50 μl medium/DMSO). • Cells are incubated with compounds for 5-6 days. • Day 6 or 7: Add 25 μl of alamarBlue solution to each well and incubate for 8 hours at 37° C. Measure fluorescence by exciting at 530-560 nm and measuring emission at 590 nm 5. Evaluation • Subtract average value for medium blank from sample readings • Calculate EC50 using GraphPad Prism (Fifty)

[3] = system: MB453 cells; assay: alamarBlue MB453 cell assay (antiproliferative/cytotoxicity); format: cell-based; details: Homo sapiens; MDA MB 453 breast cancer cell line
Text: as §1, §2, §3, §4, §5

[4] = system: U87 cells; assay: alamarBlue U87 cell assay (antiproliferative/cytotoxicity); format: cell-based; details: U-87MG human glioblastoma cells
Text: as §1, §2, §3, §4, §5

[5] = system: MCF7 cells; assay: alamarBlue MCF7 cell assay (antiproliferative/cytotoxicity); format: cell-based; details: MCF7 human breast cancer cell line
Text: as §1, §2, §3, §4, §5

[6] = system: BT474 cells; assay: alamarBlue BT474 cell assay (antiproliferative/cytotoxicity); format: cell-based; details: BT-474 human breast cancer cell line, 5-6 days incubation
Text: as §1, §2, §3, §4, §5

CCc1ncnc(-c2ccc(OC)c(OC)c2)c1C#Cc1cnc(C)c(NS(C)(=O)=O)c1 [Example 1, N-{5-[4-(3,4-Dimethoxy-phenyl)-6-ethyl-pyrimidin-5-ylethynyl]-2-methyl-pyridin-3-yl}-methanesulfonamide]
IC50 [1]: 1 nM | EC50 [2]: 490 nM | EC50 [3]: 79 nM | EC50 [4]: 300 nM | EC50 [5]: 39 nM | EC50 [6]: 94 nM

CCc1ncnc(-c2cccc(CN(C)C)c2)c1C#Cc1cnc(C)c(NS(C)(=O)=O)c1 [Example 2, N-{5-[4-(3-Dimethylaminomethyl-phenyl)-6-ethyl-pyrimidin-5-ylethynyl]-2-methyl-pyridin-3-yl}-methanesulfonamide]
IC50 [1]: 7 nM | EC50 [2]: 2820 nM | EC50 [3]: 394 nM | EC50 [4]: 1230 nM | EC50 [5]: 439 nM | EC50 [6]: 588 nM

CCc1ncnc(-c2ccc(C)nc2)c1C#Cc1cnc(C)c(NS(C)(=O)=O)c1 [Example 3, N-{5-[4-Ethyl-6-(6-methyl-pyridin-3-yl)-pyrimidin-5-ylethynyl]-2-methyl-pyridin-3-yl}-methanesulfonamide]
IC50 [1]: 1 nM | EC50 [2]: 368 nM | EC50 [3]: 112 nM | EC50 [4]: 410 nM | EC50 [5]: 23 nM | EC50 [6]: 177 nM

CCc1ncnc(-c2ccnc(C)c2)c1C#Cc1cnc(C)c(NS(C)(=O)=O)c1 [Example 4, N-{5-[4-Ethyl-6-(2-methyl-pyridin-4-yl)-pyrimidin-5-ylethynyl]-2-methyl-pyridin-3-yl}-methanesulfonamide]
IC50 [1]: 2 nM | EC50 [2]: 329 nM | EC50 [3]: 75 nM | EC50 [4]: 383 nM | EC50 [5]: 27 nM | EC50 [6]: 171 nM

CCc1ncnc(-c2ccnc(C)c2)c1C#Cc1cnc(C)c(NS(=O)(=O)c2ccccc2Cl)c1 [Example 11, 2-Chloro-N-{5-[4-ethyl-6-(2-methyl-pyridin-4-yl)-pyrimidin-5-ylethynyl]-2-methyl-pyridin-3-yl}-benzenesulfonamide]
IC50 [1]: 1 nM | EC50 [2]: 103 nM | EC50 [3]: 190 nM | EC50 [4]: 686 nM | EC50 [5]: 74 nM

CCc1ncnc(-c2ccnc(C)c2)c1C#Cc1cnc(C)c(NS(=O)(=O)c2ccc(C#N)cc2)c1 [Example 84, 4-Cyano-N-{5-[4-ethyl-6-(2-methyl-pyridin-4-yl)-pyrimidin-5-ylethynyl]-2-methyl-pyridin-3-yl}-benzenesulfonamide]
IC50 [1]: 2 nM | EC50 [2]: 769 nM | EC50 [3]: 190 nM | EC50 [4]: 778 nM | EC50 [5]: 85 nM

CCc1ncnc(-c2ccnc(C)c2)c1C#Cc1cnc(C)c(NS(=O)(=O)c2ccccc2OC)c1 [Example 96, N-{5-[4-Ethyl-6-(2-methyl-pyridin-4-yl)-pyrimidin-5-ylethynyl]-2-methyl-pyridin-3-yl}-2-methoxy-benzenesulfonamide]
IC50 [1]: 0.71 nM | EC50 [2]: 93 nM | EC50 [3]: 102 nM | EC50 [4]: 225 nM | EC50 [6]: 84 nM

CCc1ncnc(-c2ccnc(C)c2)c1C#Cc1cnc(C)c(NS(=O)(=O)c2ccc(OC)cc2OC)c1 [Example 98, N-{5-[4-Ethyl-6-(2-methyl-pyridin-4-yl)-pyrimidin-5-ylethynyl]-2-methyl-pyridin-3-yl}-2,4-dimethoxy-benzenesulfonamide]
IC50 [1]: 2 nM | EC50 [2]: 288 nM | EC50 [3]: 437 nM | EC50 [4]: 559 nM | EC50 [6]: 225 nM

CCc1ncnc(-c2ccnc(C)c2)c1C#Cc1cnc(C)c(NS(=O)(=O)c2ccc(C(C)(C)C)cc2)c1 [Example 99, 4-tert-Butyl-N-{5-[4-ethyl-6-(2-methyl-pyridin-4-yl)-pyrimidin-5-ylethynyl]-2-methyl-pyridin-3-yl}-benzenesulfonamide]
IC50 [1]: 11 nM | EC50 [2]: 2490 nM | EC50 [3]: 2930 nM | EC50 [4]: 2420 nM | EC50 [6]: 4970 nM

CCc1ccc(S(=O)(=O)Nc2cc(C#Cc3c(CC)ncnc3-c3ccnc(C)c3)cnc2C)cc1 [Example 100, 4-Ethyl-N-{5-[4-ethyl-6-(2-methyl-pyridin-4-yl)-pyrimidin-5-ylethynyl]-2-methyl-pyridin-3-yl}-benzenesulfonamide]
IC50 [1]: 5 nM | EC50 [2]: 558 nM | EC50 [3]: 746 nM | EC50 [4]: 819 nM | EC50 [6]: 733 nM

CCc1ncnc(-c2ccnc(C)c2)c1C#Cc1cnc(C)c(NS(=O)(=O)c2cc(Cl)ccc2OC)c1 [Example 101, 5-Chloro-N-{5-[4-ethyl-6-(2-methyl-pyridin-4-yl)-pyrimidin-5-ylethynyl]-2-methyl-pyridin-3-yl}-2-methoxy-benzenesulfonamide]
IC50 [1]: 0.65 nM | EC50 [2]: 82 nM | EC50 [3]: 89 nM | EC50 [4]: 259 nM | EC50 [6]: 102 nM

CCc1ncnc(-c2ccnc(C)c2)c1C#Cc1cnc(C)c(NS(=O)(=O)c2cc(C)ccc2OC)c1 [Example 102, N-{5-[4-Ethyl-6-(2-methyl-pyridin-4-yl)-pyrimidin-5-ylethynyl]-2-methyl-pyridin-3-yl}-2-methoxy-5-methyl-benzenesulfonamide]
IC50 [1]: 1 nM | EC50 [2]: 104 nM | EC50 [3]: 146 nM | EC50 [4]: 319 nM | EC50 [6]: 149 nM

CCc1ncnc(-c2ccnc(C)c2)c1C#Cc1cnc(C)c(NS(=O)(=O)c2c(F)cccc2F)c1 [Example 103, N-{5-[4-Ethyl-6-(2-methyl-pyridin-4-yl)-pyrimidin-5-ylethynyl]-2-methyl-pyridin-3-yl}-2,6-difluoro-benzenesulfonamide]
IC50 [1]: 0.32 nM | EC50 [2]: 185 nM | EC50 [3]: 59 nM | EC50 [4]: 161 nM | EC50 [6]: 53 nM

CCc1ncnc(-c2ccc(CN)nc2)c1C#Cc1cnc(C)c(NS(=O)(=O)c2ccc(F)cc2F)c1 [Example 104, N-{5-[4-(6-Aminomethyl-pyridin-3-yl)-6-ethyl-pyrimidin-5-ylethynyl]-2-methyl-pyridin-3-yl}-2,4-difluoro-benzenesulfonamide]
IC50 [1]: 0.64 nM | EC50 [2]: 955 nM | EC50 [3]: 119 nM | EC50 [4]: 605 nM | EC50 [6]: 127 nM

CCc1ncnc(-c2ccc(CN)nc2)c1C#Cc1cnc(C)c(NS(=O)(=O)c2ccccc2C(F)(F)F)c1 [Example 105, N-{5-[4-(6-Aminomethyl-pyridin-3-yl)-6-ethyl-pyrimidin-5-ylethynyl]-2-methyl-pyridin-3-yl}-2-trifluoromethyl-benzenesulfonamide]
IC50 [1]: 0.93 nM | EC50 [2]: 958 nM | EC50 [3]: 152 nM | EC50 [4]: 406 nM | EC50 [6]: 1210 nM

CCc1ncnc(-c2ccc(CN)nc2)c1C#Cc1cnc(C)c(NS(=O)(=O)c2ccccc2)c1 [Example 106, N-{5-[4-(6-Aminomethyl-pyridin-3-yl)-6-ethyl-pyrimidin-5-ylethynyl]-2-methyl-pyridin-3-yl}-benzenesulfonamide]
IC50 [1]: 1 nM | EC50 [2]: 393 nM | EC50 [3]: 118 nM | EC50 [4]: 213 nM | EC50 [6]: 131 nM
